{"source": "paper PMC11343806", "about": "(Journal of Biological Inorganic Chemistry, 2024)", "key": {"[1]": {"test_system": "Staphylococcus aureus MRSA (DSM 11822, ICB 25701)", "assay": "MIC broth dilution, aerobic bacteria", "type": "cell-based", "details": "20 h at 37 °C, ± standard error, n ≥ 3", "experimental": "(§1) The following strains were used and maintained at 37 °C in MHB (21 g/L Müller Hinton, pH 7.4) or TSY (30 g/L trypticase soy broth, 3 g/L yeast extract, pH 7.0–7.2) medium. Acinetobacter baumannii (DSM 30007, ATCC 19606) in MHB, Escherichia coli (DSM1116, ATCC 9637) in TSY, Klebsiella pneumoniae (DSM 11678, ATCC33495) in MHB, Pseudomonas aeruginosa PA7 (DSM 24068) in MHB, Enterococcus faecium (DSM 20477, ATCC 19434) in TSY, Staphylococcus aureus MRSA (DSM 11822, ICB 25701) in TSY). Minimum inhibitory concentration (MIC) values were determined following a standardized protocol in broth dilution assays. […] Starting inocula of 2–8 × 10^5 colony-forming units per ml in MHB or TSY media at 37 °C were used, and serial dilutions were carried out in 384-well microtiter plates in duplicate. […] The MIC values for the tested compounds were determined in three independent experiments by a curve-fitting procedure using the GraphPad Prism software (Graphpad Software, Inc.)."}, "[2]": {"test_system": "Pseudomonas aeruginosa PA7 (DSM 24068)", "assay": "MIC broth dilution, aerobic bacteria", "type": "cell-based", "details": "20 h at 37 °C, ± standard error, n ≥ 3, read-out: MIC, P.aeruginosa", "experimental": "as §1"}, "[3]": {"test_system": "Klebsiella pneumoniae (DSM 11678, ATCC33495)", "assay": "MIC broth dilution, aerobic bacteria", "type": "cell-based", "details": "20 h at 37 °C, ± standard error, n ≥ 3, read-out: MIC, K. pneumoniae", "experimental": "as §1"}, "[4]": {"test_system": "Enterococcus faecium (DSM 20477, ATCC 19434)", "assay": "MIC broth dilution, aerobic bacteria", "type": "cell-based", "details": "20 h at 37 °C, ± standard error, n ≥ 3", "experimental": "as §1"}, "[5]": {"test_system": "Acinetobacter baumannii (DSM 30007, ATCC 19606)", "assay": "MIC broth dilution, aerobic bacteria", "type": "cell-based", "details": "20 h at 37 °C, ± standard error, n ≥ 3", "experimental": "as §1"}, "[6]": {"biological_target": "T1, bacterial TrxR from E. coli (Escherichia coli, UniProt P0A9P4)", "T1 construct": "purchased Sigma-Aldrich", "T1 sequence (P0A9P4 whole entry)": "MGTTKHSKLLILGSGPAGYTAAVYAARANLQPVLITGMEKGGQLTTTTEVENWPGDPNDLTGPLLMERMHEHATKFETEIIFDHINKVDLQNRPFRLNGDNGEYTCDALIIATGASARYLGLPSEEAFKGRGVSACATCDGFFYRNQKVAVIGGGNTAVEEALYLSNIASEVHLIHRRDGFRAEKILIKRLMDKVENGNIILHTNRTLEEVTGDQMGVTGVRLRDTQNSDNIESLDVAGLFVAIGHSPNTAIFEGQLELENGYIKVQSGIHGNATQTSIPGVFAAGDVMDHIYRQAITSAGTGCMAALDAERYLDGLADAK", "assay": "Inhibition of bacterial TrxR (E. coli), DTNB/5-TNB assay", "type": "biochemical", "details": "purified enzyme, 75 min incubation at 25 °C; means and standard deviations", "experimental": "The TrxR (E.coli) inhibition assay was performed according to a previously published procedure. It is partly based on the procedure developed by Lu et al.[35] and detects the formation of 5-TNB (5-thionitrobenzoic acid). Solutions of E. coli TrxR (35.4 U/mL) and of its substrate thioredoxin (Trx) E. coli (156 µg/mL) (both purchased from Sigma-Aldrich and diluted with distilled water) and fresh stock solutions of the test compounds (in DMF) were prepared (1c was administered as suspension). TE buffer (Tris–HCl 50 mM, EDTA 1 mM, pH 7.5) containing graded concentrations of the respective compounds (20 µL) or buffer without compounds (20 µL, as control) were mixed with TrxR solution (10 µL), Trx solution (10 µL), and a solution of NADPH (200 µM) in TE buffer (100 µL) in a well on a 96-well plate. As blank solution, 200 µM NADPH in TE buffer (100 µL) mixed with a DMF/buffer mixture (40 µL) was used (final concentrations of DMF: 0.5% v/v). The solutions on the 96-well plate were incubated for 75 min at 25 °C with moderate shaking. A volume of 100 µL of a reaction mixture (TE buffer containing 200 µM NADPH and 5 mM DTNB) was added to each well to initiate the reaction. After thorough mixing, the formation of 5-TNB was monitored by a microplate reader at 405 nm in 35 s intervals (10 measurements). The values were corrected by subtraction of the values for the blank solution. The increase in concentration of 5-TNB followed a linear trend (r^2 ≥ 0.990) and the enzymatic activities were calculated as the gradients (increase in absorbance per second) thereof. Absence of interference with the assay components was confirmed by a negative control experiment for each test compound. The highest test compound concentration was used and the enzyme solution was replaced by TE buffer for this purpose. The IC50 values were calculated as the concentration of the compound decreasing the enzymatic activity of the positive control by 50% and are presented as the means and standard deviations of independent repeated experiments."}, "[7]": {"assay": "Solubility observations"}, "[8]": {"test_system": "C. difficile strain 1296^ T (DSM 1296), metronidazole-sensitive", "assay": "Antibacterial effects against C. difficile (anaerobic growth curves, OD600)", "type": "cell-based, Clostridioides difficile", "details": "strain 1296T", "experimental": "(§2) (provided by Ulrich Nübel, DSMZ Braunschweig) were maintained in prereduced BHIS medium (37 g/L BHI, oxoid, 5% yeast extract, 1% L-cysteine) in a Coy-Laboratories anaerobic chamber (85% N2, 10% CO2, 5% H2) at 37 °C. Freshly prepared cultures were incubated until the exponential growth phase (OD600 = 0.2–0.4) and were adjusted to 1 × 10^6 cfu/mL before inoculation. The test compounds were dissolved in DMSO and by two-fold dilution steps concentrations in the range from 200 µM to 0.39 µM in BIHS medium were obtained. The solutions (100µL) were added to 100 µL of a diluted C. difficile culture (total volume: 200 µL in BIHS, 5 × 10^5 C. difficile, 100–0.195 µM test compound per well). The OD600-values over a period of 48 h were measured with a LogPhase 600 4-plate reader (BioTek) and compared with blank BHIS."}, "[9]": {"test_system": "C. difficile strain IB136 (NCTC 14385), metronidazole-resistant", "assay": "Antibacterial effects against C. difficile (anaerobic growth curves, OD600)", "type": "cell-based, Clostridioides difficile", "experimental": "as §2"}, "[10]": {"test_system": "C. difficile strain VPI10463 (ATCC 43255), metronidazole-sensitive", "assay": "Antibacterial effects against C. difficile (anaerobic growth curves, OD600)", "type": "cell-based, Clostridioides difficile", "experimental": "as §2"}, "[11]": {"test_system": "A-549 lung cancer cells", "assay": "Antiproliferative assay (crystal violet)", "type": "cell-based, human", "details": "72 h exposure; ± standard deviation, n = 2–4; read-out: IC50, antiproliferative effects, A-549", "experimental": "(§3) The antiproliferative effects were determined according to a previously published procedure. A volume of 100 µL of cell suspension of A549 cells, MDA-MB-231, HT-29 or Vero E6 cells was transferred into the wells of a 96-well plates and incubated at 37 °C under 5% CO2 for 72 h. […] The results were calculated as the mean values of three independent experiments, unless stated otherwise."}, "[12]": {"test_system": "MDA-MB-231 breast cancer cells", "assay": "Antiproliferative assay (crystal violet)", "type": "cell-based, human", "details": "96 h exposure; ± standard deviation, n = 2–4; read-out: IC50, antiproliferative effects, MDA-MB-231", "experimental": "as §3"}, "[13]": {"test_system": "HT-29 colon carcinoma cells", "assay": "Antiproliferative assay (crystal violet)", "type": "cell-based, human", "details": "72 h exposure; ± standard deviation, n = 2–4; read-out: IC50, antiproliferative effects, HT-29", "experimental": "as §3"}, "[14]": {"test_system": "aerobic Gram-positive and Gram-negative pathogenic bacteria strains", "assay": "MIC, summary over the panel of aerobic bacteria", "type": "cell-based", "experimental": "as §1"}, "[15]": {"test_system": "A-549, HT-29, MDA-MB-231 and Vero E6 cells", "assay": "Antiproliferative assay, summary over all cell lines", "type": "cell-based", "details": "all four cell lines; for 2c except MDA-MB-231; read-out: IC50 values, antiproliferative effects, all cell lines", "experimental": "as §3"}, "[16]": {"test_system": "Vero E6 non-tumorigenic epithelial kidney cells", "assay": "Antiproliferative assay (crystal violet)", "type": "cell-based, African green monkey", "details": "72 h exposure; ± standard deviation, n = 2–4; read-out: IC50, antiproliferative effects, Vero E6", "experimental": "as §3"}}, "data": [{"smiles": "Cc1ncc([N+](=O)[O-])n1CCOC(=O)Cn1[c](=[Au][Cl])n(C)c2ccccc21", "note": "[Compound 2c, Chlorido-(1-methyl-3-(2-(2-(2-methyl-5-nitroimidazol-1-yl)ethoxy)-2-oxoethyl)-benzimidazol-2-yliden)gold(I)]", "values": [{"measurement": "MIC, MRSA", "setting": "[1]", "value": "37.1 ± 16.0", "unit": "µM"}, {"measurement": "MIC", "setting": "[2]", "value": "> 111.2", "unit": "µM"}, {"measurement": "MIC", "setting": "[3]", "value": "> 111.2", "unit": "µM"}, {"measurement": "MIC, E. faecium", "setting": "[4]", "value": "43.3 ± 16.0", "unit": "µM"}, {"measurement": "MIC", "setting": "[5]", "value": "> 111.2", "unit": "µM"}, {"measurement": "IC50", "setting": "[6]", "value": "0.175 ± 0.017", "unit": "µM"}, {"measurement": "solubility in organic solvents", "setting": "[7]", "value": "soluble in most organic solvents"}, {"measurement": "antibacterial effect at 6.25 µM", "setting": "[8]; 6.25 µM, recovery of growth after extended exposure", "value": "effective inhibitors"}, {"measurement": "concentration leading to a complete block of bacterial growth without recovery", "setting": "[8]; up to 100 µM, 48 h", "value": "blocked bacterial growth at the same concentration"}, {"measurement": "concentration leading to a complete block of bacterial growth without recovery", "setting": "[9]; metronidazole-resistant strain IB136, up to 100 µM, 48 h", "value": "blocked bacterial growth at the same concentration"}, {"measurement": "antibacterial effect at 6.25 µM", "setting": "[9]; resistant strain IB136, 6.25 µM", "value": "strong effects with recovery of bacterial proliferation"}, {"measurement": "antibacterial effect at 6.25 µM", "setting": "[10]; strain VPI10463, 6.25 µM, recovery of growth after extended exposure", "value": "effective inhibitors"}, {"measurement": "concentration leading to a complete block of bacterial growth without recovery", "setting": "[10]; strain VPI10463, up to 100 µM, 48 h", "value": "blocked bacterial growth at the same concentration"}, {"measurement": "IC50", "setting": "[11]", "value": "81.9 ± 2.8", "unit": "µM"}, {"measurement": "IC50", "setting": "[12]", "value": "31.8 ± 4.1", "unit": "µM"}, {"measurement": "IC50", "setting": "[13]", "value": "80.7 ± 5.9", "unit": "µM"}, {"measurement": "MIC values against Gram-positive strains", "setting": "[14]; MRSA and E. faecium, except for 1c in MRSA", "value": "37 to 44", "unit": "µM"}, {"measurement": "activity against Gram-negative strains (in words)", "setting": "[14]; aerobic conditions", "value": "inactive"}, {"measurement": "IC50", "setting": "[15]", "value": "> 60", "unit": "µM"}, {"measurement": "IC50", "setting": "[16]", "value": "> 95", "unit": "µM"}]}]}
